Read-outs that look alike come from different tables or passages of the source.
Type: physicochemical
Method: The stability of sample was tested by storing the samples at 40° C./75% relative humidity (RH) and 25° C./60% RH for 6 months. The stability of samples was tested by PXRD, HPLC and water content was measured by Karl Fischer method.

O=C(NCc1c(F)cc(F)cc1F)c1cn2c(c(O)c1=O)C(=O)N1[C@H]3CC[C@H](C3)O[C@@H]1C2 [Form HN-1, sodium (2R,5S,13aR)-7,9-dioxo-10-((2,4,6-trifluorobenzyl)carbamoyl)-2,3,4,5,7,9,13,13a-octahydro-2,5-methanopyrido [1′,2′:4,5]pyrazino[2,1-b][1,3] oxazepin-8-olate]
stability (PXRD pattern, water content, purity after storage): physically and chemically stable | Physical form (as assessed by PXRD) (4 month, 25° C./60% RH): Crystalline | Purity by HPLC (4 month, 25° C./60% RH): 99.78% | Water content by Karl Fischer method (4 month, 25° C./60% RH): 3.7% | Physical form (as assessed by PXRD) (4 month, 40° C./75% RH): Crystalline | Purity by HPLC (4 month, 40° C./75% RH): 99.78% | Water content by Karl Fischer method (4 month, 40° C./75% RH): 3.6% | Physical form (as assessed by PXRD) (5 month, 25° C./60% RH): Crystalline | Purity by HPLC (5 month, 25° C./60% RH): 99.78% | Water content by Karl Fischer method (5 month, 25° C./60% RH): 3.9% | Physical form (as assessed by PXRD) (5 month, 40° C./75% RH): Crystalline | Purity by HPLC (5 month, 40° C./75% RH): 99.77% | Water content by Karl Fischer method (5 month, 40° C./75% RH): 3.9% | Physical form (as assessed by PXRD) (6 month, 25° C./60% RH): Crystalline | Purity by HPLC (6 month, 25° C./60% RH): 99.78% | Water content by Karl Fischer method (6 month, 25° C./60% RH): 3.8% | Physical form (as assessed by PXRD) (6 month, 40° C./75% RH): Crystalline | Purity by HPLC (6 month, 40° C./75% RH): 99.78% | Water content by Karl Fischer method (6 month, 40° C./75% RH): 3.8% | Physical form (as assessed by PXRD) (Initial): Crystalline | Purity by HPLC (Initial): 99.82% | Water content by Karl Fischer method (Initial): 4.2%

Reference: US12037343B2, “Process for the preparation of sodium (2r,5s,13ar)-7,9-dioxo-10-((2,4,6,-trifluorobenzyl)carbamoyl)-2,3,4,5,7,9,13,13A-octahydro-2,5-methanopyrido[1′,2′:4,5]pyrazino[2,1-B] [1,3] oxazepin-8-olate and its polymorphic form” (Honour Lab Limited, priority 2018, dated 2024)
